Calls of active or inactive are those of the source. How the calls were made is not given here.

The subject of the data set is rodent carcinogenicity bioassays, tumor incidence. Kind of data set: CCRIS carcinogenicity studies. An outline of the steps:
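Archive of carcinogenicity, mutagenicity, tumor promotion and tumor inhibition results drawn from journals, NCI reports and other sources, expert-reviewed; covers 1985-2011 and is no longer updated.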

Consider `CCC(=O)N(O)c1ccc(/C=C/c2ccccc2)cc1`, for which the carcinogen call is “active; positive” (Species: RAT, Strain/Sex: STRAIN-CD/FEMALE, Route: INTRAPERITONEAL, Dose: 0, 10 UMOL/KG BW 2/WK FOR 6 WK (STUDY DURATION: 62 WK), Tumor Site: Type of Lesion: LIVER: NEOPLASTIC NODULE, MAMMARY GLAND: TUMOR, EAR DUCT: TUMOR, PITUITARY GLAND: CARCINOMA, Tumor Site: Type of Lesion: LIVER: NEOPLASTIC NODULE, MAMMARY GLAND: TUMOR, EAR DUCT: TUMOR, PITUITARY GLAND: CARCINOMA) and “active; positive” (Species: RAT, Strain/Sex: STRAIN-CD/MALE, Route: INTRAPERITONEAL, Dose: 0, 10 UMOL/KG BW 2/WK FOR 6 WK (STUDY DURATION: 62 WK), Tumor Site: Type of Lesion: TESTICLE: MESOTHELIOMA, PANCREAS(ACINUS): ADENOMA, PANCREAS(ISLET CELL): CARCINOMA, EAR DUCT: ADENOMA, CARCINOMA, LIVER:, Tumor Site: Type of Lesion: TESTICLE: MESOTHELIOMA, PANCREAS(ACINUS): ADENOMA, PANCREAS(ISLET CELL): CARCINOMA, EAR DUCT: ADENOMA, CARCINOMA, LIVER:).
In the case of `O=c1c(-c2ccc(O)cc2)coc2cc(O)cc(O)c12`, the carcinogen call by setting is: (Species: Rat, Strain/Sex: Sprague-Dawley/Female (50/Group), Route: Oral, Dose: During pregnancy, ingested doses for dams were ~0, 0.5, 9, and 45 mg/kg bw/day. During lactation, ingested doses for dam) “inactive; negative”; (Species: Rat, Strain/Sex: Sprague-Dawley/Female (50/Group), Route: Oral, Dose: During pregnancy, ingested doses for dams were ~0, 0.5, 9, and 45 mg/kg bw/day. During lactation, ingested doses for dam, Tumor Site: Type of Lesion: Mammary gland: adenoma and adenocarcinoma combined (13.2%, 16.3%, 22.0%, 26.0%)) “inactive; negative. positive trend but results do not reach statistical significance (ntp”; (Species: Rat, Strain/Sex: Sprague-Dawley/Female (50/Group), Route: Oral, Dose: During pregnancy, ingested doses for dams were ~0, 0.5, 9, and 45 mg/kg bw/day. During lactation, ingested doses for dam, Tumor Site: Type of Lesion: Mammary gland: adenoma and adenocarcinoma combined (16.7%, 8.0%, 16.0%, 32.7%) Pituitary gland: neoplasms (70.4%, 80.0%) “inactive; positive but at 2 lower doses, there was a negative trend for the mammary tumors”; (Species: Rat, Strain/Sex: Sprague-Dawley/Female (50/Group), Route: Oral, Dose: During pregnancy, ingested doses for dams were ~0, 0.5, 9, and 45 mg/kg bw/day. During lactation, ingested doses for dam, Tumor Site: Type of Lesion: Pituitary gland: adenoma and carcinoma combined (Overall rate 70.4%, 65.3%, 80.0%, 88.0%)) “inactive; negative (ntp describes as equivocal)”; (Species: Rat, Strain/Sex: Sprague-Dawley/Male (50/Group), Route: Oral, Dose: During pregnancy, ingested doses for dams were ~0, 0.5, 9, and 45 mg/kg bw/day. During lactation, ingested doses for dam) “inactive; negative”.
Take `Cc1ccc(/C(=C\CN2CCCC2)c2ccccn2)cc1`: the carcinogen call runs as follows: (Species: MOUSE, Strain/Sex: B6C3F1/FEMALE, Route: ORAL, Dose: 0, 500, 2000, 4000 PPM IN DIET FOR 2 YR (STUDY DURATION: 2 YR), Dose: 0, 500, 2000, 4000 PPM IN DIET FOR 2 YR (STUDY DURATION: 2 YR)) “inactive; negative”; (Species: MOUSE, Strain/Sex: B6C3F1/MALE, Route: ORAL, Dose: 0, 500, 2000, 4000 PPM IN DIET FOR 2 YR (STUDY DURATION: 2 YR), Dose: 0, 500, 2000, 4000 PPM IN DIET FOR 2 YR (STUDY DURATION: 2 YR)) “inactive; negative”; (Species: RAT, Strain/Sex: F344/FEMALE, Route: ORAL, Dose: 0, 250, 1000, 2000 PPM IN DIET FOR 103 WK (STUDY DURATION: 104 WK), Dose: 0, 250, 1000, 2000 PPM IN DIET FOR 103 WK (STUDY DURATION: 104 WK)) “inactive; negative”; (Species: RAT, Strain/Sex: F344/MALE, Route: ORAL, Dose: 0, 250, 1000, 2000 PPM IN DIET FOR 103 WK (STUDY DURATION: 104 WK), Dose: 0, 250, 1000, 2000 PPM IN DIET FOR 103 WK (STUDY DURATION: 104 WK)) “inactive; negative”.
As for `COc1ccc(N)c(OC)c1`, the carcinogen call is, setting by setting: (Species: MOUSE, Strain/Sex: B6C3F1/FEMALE, Route: ORAL, Dose: 0, 2500, 5000 PPM IN DIET, Dose: 0, 2500, 5000 PPM IN DIET) “inactive; negative”; (Species: MOUSE, Strain/Sex: B6C3F1/MALE, Route: ORAL, Dose: 0, 2500, 5000 PPM IN DIET, Dose: 0, 2500, 5000 PPM IN DIET) “inactive; negative”; (Species: RAT, Strain/Sex: F344/FEMALE, Route: ORAL, Dose: 0, 1500, 3000 PPM IN DIET, Dose: 0, 1500, 3000 PPM IN DIET) “inactive; negative”; (Species: RAT, Strain/Sex: F344/MALE, Route: ORAL, Dose: 0, 1500, 3000 PPM IN DIET, Dose: 0, 1500, 3000 PPM IN DIET) “inactive; negative”.
With `Nc1ccc(N=Nc2ccccc2)c(N)n1`, the carcinogen call by setting is: (Species: MOUSE, Strain/Sex: B6C3F1/FEMALE, Route: ORAL, Dose: 0, 600, 1200 PPM IN DIET, Dose: 0, 600, 1200 PPM IN DIET, Tumor Site: Type of Lesion: LIVER: HEPATOCELLULAR ADENOMA OR HEPATOCELLULAR CARCINOMA) “active; positive”; (Species: MOUSE, Strain/Sex: B6C3F1/MALE, Route: ORAL, Dose: 0, 600, 1200 PPM IN DIET, Dose: 0, 600, 1200 PPM IN DIET) “active; positive”; (Species: RAT, Strain/Sex: F344/FEMALE, Route: ORAL, Dose: 0, 3700, 7500 PPM IN DIET, Dose: 0, 3700, 7500 PPM IN DIET, Tumor Site: Type of Lesion: COLON: ADENOCARCINOMA (NOS)) “active; positive”; (Species: RAT, Strain/Sex: F344/MALE, Route: ORAL, Dose: 0, 3700, 7500 PPM IN DIET, Dose: 0, 3700, 7500 PPM IN DIET, Tumor Site: Type of Lesion: INTESTINES (COLON OR RECTUM): ADENOCARCINOMA (NOS), ADENOCARCINOMA (NOS) OR ADENOMA (NOS)) “active; positive”.
In the case of `Oc1cccc(O)c1`, the carcinogen call runs as follows: (Species: MOUSE, Strain/Sex: B6C3F1/FEMALE, Route: GAVAGE, Dose: 0, 112, 225 MG/KG IN DEIONIZED WATER 5 D/WK FOR 104 WK (STUDY DURATION: 104 WK), Dose: 0, 112, 225 MG/KG IN DEIONIZED WATER 5 D/WK FOR 104 WK (STUDY DURATION: 104 WK)) “inactive; negative”; (Species: MOUSE, Strain/Sex: B6C3F1/MALE, Route: GAVAGE, Dose: 0, 112, 225 MG/KG IN DEIONIZED WATER 5 D/WK FOR 104 WK (STUDY DURATION: 104 WK), Dose: 0, 112, 225 MG/KG IN DEIONIZED WATER 5 D/WK FOR 104 WK (STUDY DURATION: 104 WK)) “inactive; negative”; (Species: RAT, Strain/Sex: F344/FEMALE, Route: GAVAGE, Dose: 0, 50, 100, 150 MG/KG IN DEIONIZED WATER 5 D/WK FOR 104 WK (STUDY DURATION: 104 WK), Dose: 0, 50, 100, 150 MG/KG IN DEIONIZED WATER 5 D/WK FOR 104 WK (STUDY DURATION: 104 WK)) “inactive; negative”; (Species: RAT, Strain/Sex: F344/MALE, Route: GAVAGE, Dose: 0, 112, 225 MG/KG IN DEIONIZED WATER 5 D/WK FOR 104 WK (STUDY DURATION: 104 WK), Dose: 0, 112, 225 MG/KG IN DEIONIZED WATER 5 D/WK FOR 104 WK (STUDY DURATION: 104 WK)) “inactive; negative”.
With `CCc1ccc(C(c2ccc(CC)cc2)C(Cl)Cl)cc1`, the carcinogen call is, setting by setting: (Species: MOUSE, Strain/Sex: B6C3F1/FEMALE, Route: ORAL, Dose: 0, 5000 IN DIET FOR FIRST 48 WK FOLLOWED BY 1000 PPM IN DIET FOR LAST 57 WK, 10000 PPM IN DIET FOR 48 WK FOLLOWED BY 300, Dose: 0, 5000 IN DIET FOR FIRST 48 WK FOLLOWED BY 1000 PPM IN DIET FOR LAST 57 WK, 10000 PPM IN DIET FOR 48 WK FOLLOWED BY 300, Tumor Site: Type of Lesion: LIVER: HEPATOCELLULAR CARCINOMA OR ADENOMA) “equivocal”; (Species: MOUSE, Strain/Sex: B6C3F1/MALE, Route: ORAL, Dose: 0, 2,500, 5,000 PPM IN DIET FOR 105 WK (STUDY DURATION: 105 WK), Dose: 0, 2,500, 5,000 PPM IN DIET FOR 105 WK (STUDY DURATION: 105 WK)) “inactive; negative”; (Species: RAT, Strain/Sex: F344/FEMALE, Route: ORAL, Dose: 0, 3,500, 7,000 PPM IN DIET FOR 105 WK (STUDY DURATION: 105 WK), Dose: 0, 3,500, 7,000 PPM IN DIET FOR 105 WK (STUDY DURATION: 105 WK)) “inactive; negative”; (Species: RAT, Strain/Sex: F344/MALE, Route: ORAL, Dose: 0, 3,500, 7,000 PPM IN DIET FOR 105 WK (STUDY DURATION: 105 WK), Dose: 0, 3,500, 7,000 PPM IN DIET FOR 105 WK (STUDY DURATION: 105 WK)) “inactive; negative”.

For the origin of these results see PubChem BioAssay AID1259411 (Chemical Carcinogenesis Research Information System (CCRIS), 2018).
